Measurements from PMC10272112 (Nature Communications, 2023).
“And” between values parts separate entries of the source, which are not always exact repeats. Equal entries are not always repeated. Each block holds one compound with its values, some of them ahead of it.

Legend:
[1] = target: HDAC1 (Homo sapiens, UniProt Q13547); assay: HDAC-Glo assay; format: biochemical; design: purchased BPS Bioscience 50051; details: for EC50: read-out: log EC50 from dose-dependent HDAC inhibition curves (converted)
Procedure: To validate the inhibition of HDACs by LA and LM and elaborate on the structure-activity relationship (SAR) of enantiomers as well as oxidized versus reduced forms of the molecules, we performed enzyme activity assays for recombinant HDAC1,2,3,6,8 as well as FRET-based binding assay for recombinant HDAC10.
The experiments were performed according to ref. [48]. […] Drug dosing was performed with a D300e Digital Dispenser (Tecan). HDACs (7 ng/mL for HDAC1, 25 ng/mL for HDAC2, 200 ng/mL for HDAC3/Ncor2 complex, 100 ng/mL for HDAC6, 200 ng/mL for HDAC8) and inhibitors were incubated together at room temperature (RT) for 30 min. After the addition of the HDAC-Glo™ I/II reagent, plates were shaken (800 rpm orbital shaker, 30 s), centrifuged (300 g, 1 min), and incubated at RT for 30 min. Luminescence was detected with a CLARIOstar (BMG Labtech) plate reader.

[2] = tested on: ELMSAN1; assay: Chemoproteomic competition pulldown assay (co-competed MiDAC partner); format: binding
Procedure: (§1) To identify proteins directly bound by lipoic acid, we employed a chemoproteomic competition assay. Briefly, (R/S)-LA was immobilized on sepharose beads via an amidation reaction to form an affinity matrix (abbreviated as iL; Fig. 1a). This affinity matrix can be incubated with cell lysate to pull down potential LA or LM target proteins and identify these targets via bottom-up proteomics. In a competition assay, free LA or LM were incubated with lysate at different concentrations before pulling down and quantifying target proteins. […] (Fig. 1b, see “Methods” for details). […] The lysate buffer used in this assay contains 1 mM DTT to mimic the intracellular reductive milieu and to reduce lipoic acid and LM. […] Additional competition assays performed in lung adenocarcinoma cell A549 lysate also identified HDAC1, HDAC2, and HDAC6 as targets (Supplementary Fig. 1b). Amongst the three cell lines tested, HDACs were the only confidently identified targets across the 1500–3000 proteins quantified in these assays. […] We validated the results by analogous pulldown competition assays using two other affinity matrices prepared via the immobilization of either the HDAC inhibitor Quisinostat (iQ) and an analog of the class IIa HDAC inhibitor Bürli’s 31[14] (iC)[12]. We have previously shown that these affinity matrices specifically bind to the active sites of HDACs and have used them for HDACi selectivity profiling. Indeed, binding of (R/S)-LA and (R/S)-LM to HDAC1, HDAC2, HDAC3, HDAC6, and, to a lesser extent, HDAC8 was confirmed in these assays (Supplementary Fig. 1c, d). No binding to class IIa HDACs or the recently discovered common HDAC inhibitor off-target MBLAC2 was observed (Supplementary Fig. 1e)[12]. […] This observation might reflect electrostatic repulsion between the HDAC10 active site gate-keeper glutamic acid residues[15],[16] and the terminal carboxylic acid of LA.
(§2) To assess the degree of protein depletion from lysates by the affinity matrix, a second pulldown (PDPD) with fresh beads was performed using the unbound protein fraction from the vehicle control flow through. The beads were washed (1 × 1 mL of lysis buffer without inhibitors and only 0.4% Igepal, 2 × 2 mL of lysis buffer without inhibitors and only 0.2% Igepal), and captured proteins were denatured with 8 M urea buffer, alkylated with 55 mM chloroacetamide and digested with Trypsin according to standard procedures. The resulting peptides were desalted on a C18 filter plate (Sep-Pak® tC18 µElution Plate, Waters), vacuum dried, and stored at −20 °C until LC–MSMS measurement.
(§3) For the competition assays, relative binding was calculated based on the protein intensity ratio to the DMSO control for every single inhibitor concentration. EC50 values were derived from a four-parameter log-logistic regression with variable slope (constrain: bottom > 0). The obtained EC50 values were multiplied with a protein-dependent correction factor (cf), resulting in the apparent Kd value (Kd^app). The correction factor is determined by calculating the ratio of the protein intensity of two consecutive pulldowns of the vehicle control sample[13]. Targets of the inhibitors were annotated manually according to published procedures[12],[46],[47]. […] Additionally, the number of unique peptides and MSMS counts per condition were taken into account. Positive target binding across several independent experiments performed with different cell lysates further substantiated our confidence for a true positive drug-target binding event.

[3] = tested on: DNTTIP1; assay: as above; format: binding
Procedure: as §1, §2, §3

[4] = 0.5 M TCEP, log10 M -3.30103, 3 technical replicates
[5] = 0.5 M TCEP, log10 M -3.82945, 3 technical replicates
[6] = 0.5 M TCEP, log10 M -4.35788, 3 technical replicates
[7] = 0.5 M TCEP, log10 M -4.88629, 3 technical replicates
[8] = 0.5 M TCEP, log10 M -5.41477, 3 technical replicates
[9] = 0.5 M TCEP, log10 M -5.94309, 3 technical replicates
[10] = 0.5 M TCEP, log10 M -6.47756, 3 technical replicates
[11] = 0.5 M TCEP, log10 M -6.87615, 3 technical replicates
[12] = iL, MV4-11 lysate, log10 M -3.52288
[13] = iL, MV4-11 lysate, log10 M -4.52288
[14] = iL, MV4-11 lysate, log10 M -5.52288
[15] = iL, MV4-11 lysate, log10 M -6.52288
[16] = iQ, SW620 lysate, log10 M -3.52288
[17] = iQ, SW620 lysate, log10 M -4.52288
[18] = iQ, SW620 lysate, log10 M -5.52288
[19] = iQ, SW620 lysate, log10 M -6.52288

Sequence of HDAC1 (Q13547 whole entry): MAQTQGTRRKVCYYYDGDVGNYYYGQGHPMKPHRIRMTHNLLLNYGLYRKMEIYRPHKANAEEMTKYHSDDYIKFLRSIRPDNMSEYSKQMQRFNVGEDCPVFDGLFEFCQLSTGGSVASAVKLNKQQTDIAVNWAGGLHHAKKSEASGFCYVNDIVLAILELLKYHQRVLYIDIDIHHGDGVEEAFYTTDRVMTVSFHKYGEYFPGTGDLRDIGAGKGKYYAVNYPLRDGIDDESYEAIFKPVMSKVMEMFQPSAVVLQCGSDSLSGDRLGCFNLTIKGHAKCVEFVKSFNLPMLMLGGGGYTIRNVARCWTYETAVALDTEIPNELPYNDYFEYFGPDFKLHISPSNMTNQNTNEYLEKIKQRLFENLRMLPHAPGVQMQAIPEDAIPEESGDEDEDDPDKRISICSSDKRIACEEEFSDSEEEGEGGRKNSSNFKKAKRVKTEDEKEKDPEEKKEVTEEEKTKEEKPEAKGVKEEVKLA

raw luminescence signal, HDAC1 inhibition [1, 4]: 5424 and 5479 and 5403
raw luminescence signal, HDAC1 inhibition [1, 5]: 13727 and 13267 and 13133
raw luminescence signal, HDAC1 inhibition [1, 6]: 41841 and 41621 and 40313
raw luminescence signal, HDAC1 inhibition [1, 7]: 92316 and 92590 and 94920
raw luminescence signal, HDAC1 inhibition [1, 8]: 199427 and 199193 and 204666
raw luminescence signal, HDAC1 inhibition [1, 9]: 291058 and 290664 and 291270
raw luminescence signal, HDAC1 inhibition [1, 10]: 353511 and 347886 and 348635
raw luminescence signal, HDAC1 inhibition [1, 11]: 348604 and 343316 and 346349
EC50 [1]: 4.62 µM
HDAC1 relative activity ([1]; sheet S2b, log conc -3.30103): 71.5662 and 71.4067 and 71.4672
HDAC1 relative activity ([1]; sheet S2b, log conc -3.82945): 85.3568 and 84.4089 and 84.9362
HDAC1 relative activity ([1]; sheet S2b, log conc -4.35788): 99.571 and 98.7787 and 97.4651
HDAC1 relative activity ([1]; sheet S2b, log conc -4.88629): 94.8867 and 95.3188 and 94.2715
HDAC1 relative activity ([1]; sheet S2b, log conc -5.41477): 102.996 and 104.783 and 104.694
HDAC1 relative activity ([1]; sheet S2b, log conc -5.94309): 100.727 and 101.673 and 102.371
HDAC1 relative activity ([1]; sheet S2b, log conc -6.47756): 104.216 and 103.707 and 104.551
HDAC1 relative activity ([1]; sheet S2b, log conc -6.87615): 97.8849 and 97.6343 and 99.4595
relative binding vs DMSO [2, 12]: 0.05487
relative binding vs DMSO ([2]; iL, MV4-11 lysate, log10 M -4): 0.06564
relative binding vs DMSO [2, 13]: 0.1508
relative binding vs DMSO ([2]; iL, MV4-11 lysate, log10 M -5): 0.5058
relative binding vs DMSO [2, 14]: 0.6836
relative binding vs DMSO ([2]; iL, MV4-11 lysate, log10 M -6): 0.7193
relative binding vs DMSO [2, 15]: 0.7931
relative binding vs DMSO ([2]; iL, MV4-11 lysate, log10 M -7): 0.9008
relative binding vs DMSO [2, 16]: 0
relative binding vs DMSO ([2]; iQ, SW620 lysate, log10 M -4): 0
relative binding vs DMSO [2, 17]: 0.1474
relative binding vs DMSO ([2]; iQ, SW620 lysate, log10 M -5): 0.6579
relative binding vs DMSO [2, 18]: 0.8569
relative binding vs DMSO ([2]; iQ, SW620 lysate, log10 M -6): 0.8861
relative binding vs DMSO [2, 19]: 0.626
relative binding vs DMSO ([2]; iQ, SW620 lysate, log10 M -7): 0.8038
relative binding vs DMSO [3, 12]: 0.05556
relative binding vs DMSO ([3]; iL, MV4-11 lysate, log10 M -4): 0.04853
relative binding vs DMSO [3, 13]: 0.1384
relative binding vs DMSO ([3]; iL, MV4-11 lysate, log10 M -5): 0.4584
relative binding vs DMSO [3, 14]: 0.6943
relative binding vs DMSO ([3]; iL, MV4-11 lysate, log10 M -6): 0.6679
relative binding vs DMSO [3, 15]: 0.7085
relative binding vs DMSO ([3]; iL, MV4-11 lysate, log10 M -7): 0.9632
relative binding vs DMSO [3, 16]: 0.382
relative binding vs DMSO ([3]; iQ, SW620 lysate, log10 M -4): 0.3895
relative binding vs DMSO [3, 17]: 0.5292
relative binding vs DMSO ([3]; iQ, SW620 lysate, log10 M -5): 0.6889
relative binding vs DMSO [3, 18]: 0.738
relative binding vs DMSO ([3]; iQ, SW620 lysate, log10 M -6): 0.858
relative binding vs DMSO [3, 19]: 0.8975
relative binding vs DMSO ([3]; iQ, SW620 lysate, log10 M -7): 0.8297
SMILES: NC(=O)CCCCC1CCSS1 (racemic) [(R/S)-LM, (R/S)-lipoamide]

SMILES: O=C(O)CCCCC1CCSS1 (racemic) [(R/S)-LA, (R/S)-lipoic acid]
HDAC enzymatic activity (normalized luminescence) [1, 4]: 2.253 and 2.122 and 2.222
raw luminescence signal, HDAC1 inhibition [1, 4]: 9033 and 8544 and 8916
HDAC enzymatic activity (normalized luminescence) [1, 5]: 6.603 and 6.6 and 6.7561
raw luminescence signal, HDAC1 inhibition [1, 5]: 25221 and 25211 and 25792
HDAC enzymatic activity (normalized luminescence) [1, 6]: 20.3513 and 20.4988 and 20.2352
raw luminescence signal, HDAC1 inhibition [1, 6]: 76389 and 76938 and 75957
HDAC enzymatic activity (normalized luminescence) [1, 7]: 44.8545 and 45.009 and 46.4019
raw luminescence signal, HDAC1 inhibition [1, 7]: 167582 and 168157 and 173341
HDAC enzymatic activity (normalized luminescence) [1, 8]: 75.7737 and 78.1543 and 78.9575
raw luminescence signal, HDAC1 inhibition [1, 8]: 282653 and 291513 and 294502
HDAC enzymatic activity (normalized luminescence) [1, 9]: 89.586 and 92.205 and 92.7553
raw luminescence signal, HDAC1 inhibition [1, 9]: 334058 and 343805 and 345853
HDAC enzymatic activity (normalized luminescence) [1, 10]: 95.6344 and 96.1277 and 99.0353
raw luminescence signal, HDAC1 inhibition [1, 10]: 356568 and 358404 and 369225
HDAC enzymatic activity (normalized luminescence) [1, 11]: 97.1294 and 100.284 and 101.314
raw luminescence signal, HDAC1 inhibition [1, 11]: 362132 and 373872 and 377707
HDAC enzymatic activity (normalized luminescence) ([1]; no TCEP, log10 M -3.30103, 3 technical replicates): 34.5758 and 34.0329 and 33.4507
HDAC enzymatic activity (normalized luminescence) ([1]; no TCEP, log10 M -3.82945, 3 technical replicates): 69.9436 and 70.5688 and 71.7678
HDAC enzymatic activity (normalized luminescence) ([1]; no TCEP, log10 M -4.35788, 3 technical replicates): 91.6791 and 90.2694 and 91.9437
HDAC enzymatic activity (normalized luminescence) ([1]; no TCEP, log10 M -4.88629, 3 technical replicates): 97.2441 and 96.7873 and 98.245
HDAC enzymatic activity (normalized luminescence) ([1]; no TCEP, log10 M -5.41477, 3 technical replicates): 102.844 and 103.267 and 105.666
HDAC enzymatic activity (normalized luminescence) ([1]; no TCEP, log10 M -5.94309, 3 technical replicates): 103.58 and 104.044 and 104.328
HDAC enzymatic activity (normalized luminescence) ([1]; no TCEP, log10 M -6.47756, 3 technical replicates): 103.305 and 103.257 and 103.904
HDAC enzymatic activity (normalized luminescence) ([1]; no TCEP, log10 M -6.87615, 3 technical replicates): 102.627 and 100.722 and 100.875
EC50 [1]: 11.4 µM
HDAC1 relative activity ([1]; sheet S2b, log conc -3.30103): 1.283 and 1.298 and 1.278
HDAC1 relative activity ([1]; sheet S2b, log conc -3.82945): 3.514 and 3.391 and 3.355
HDAC1 relative activity ([1]; sheet S2b, log conc -4.35788): 11.0684 and 11.0093 and 10.6578
HDAC1 relative activity ([1]; sheet S2b, log conc -4.88629): 24.6308 and 24.7045 and 25.3305
HDAC1 relative activity ([1]; sheet S2b, log conc -5.41477): 53.4112 and 53.3483 and 54.8189
HDAC1 relative activity ([1]; sheet S2b, log conc -5.94309): 78.0321 and 77.9262 and 78.089
HDAC1 relative activity ([1]; sheet S2b, log conc -6.47756): 94.813 and 93.3015 and 93.5028
HDAC1 relative activity ([1]; sheet S2b, log conc -6.87615): 93.4945 and 92.0736 and 92.8885
HDAC1 relative activity ([1]; sheet S2d, log conc -3.30103): 2.253 and 2.122 and 2.222
HDAC1 relative activity ([1]; sheet S2d, log conc -3.82945): 6.603 and 6.6 and 6.7561
HDAC1 relative activity ([1]; sheet S2d, log conc -4.35788): 20.3513 and 20.4988 and 20.2352
HDAC1 relative activity ([1]; sheet S2d, log conc -4.88629): 44.8545 and 45.009 and 46.4019
HDAC1 relative activity ([1]; sheet S2d, log conc -5.41477): 75.7737 and 78.1543 and 78.9575
HDAC1 relative activity ([1]; sheet S2d, log conc -5.94309): 89.586 and 92.205 and 92.7553
HDAC1 relative activity ([1]; sheet S2d, log conc -6.47756): 95.6344 and 96.1277 and 99.0353
HDAC1 relative activity ([1]; sheet S2d, log conc -6.87615): 97.1294 and 100.284 and 101.314
